Laboratory results as given in patent US20250170090A1, “METHOD FOR PREVENTING OR TREATING DISEASE OR DISORDER ASSOCIATED WITH ANTINEOPLASTIC AGENT” (ONQUALITY PHARMACEUTICALS CHINA LTD., priority 2022, published 2025).
Like-named read-outs stand apart in the source and are kept apart here.

How the values were obtained:
[1] = tested on: anti-tumor agent-induced hand-foot syndrome; assay: Comparison of different mechanism compounds in preventing sorafenib-induced hand-foot syndrome in rats (Table 6); assay type: in vivo; details: Sorafenib 80 mg/kg once a day, Days 15
Protocol: After the rats (about 200 g) were acclimated for one week, they were divided into groups of 10 and then subjected to gavage administration experiments. The anti-tumor agent (the anti-tumor agent modeled by sorafenib) was dissolved in a mixed solution of Cremophor EL:ethanol=1:1, and diluted to the required concentration with PBS (diluted about 3 times with PBS solution) before gavage administration. After gavage, the hind paws of the rats were treated with ointments of different mechanisms (NO-releasing agent group, NO-releasing agent combined with clinical drug group, NSAID group), while the control group was treated with a blank ointment. After the application of the ointment, the rats were placed in a fixed cylinder for 4 hours. After 4 hours, the rats were released, and the residual drugs in the application site were wiped off with clean water, and the rats were returned to the cage. Different treatment groups were only applied once a day. Gavage and ointment application were repeated every day until the end of the experiment.
Table 6 lists the animal experimental combinations of various anti-tumor agents and ointments from different treatment groups, as well as the corresponding experimental results (where the value in the control rate column=the incidence rate of hand-foot syndrome in the blank group−the incidence rate of hand-foot syndrome in the treatment group).

[2] = tested on: hand-foot syndrome induced by anti-tumor agents; assay: Prevention of hand-foot syndrome induced by anti-tumor agents in rats, NO-NSAID ointment on hind paws (Table 2-2); assay type: in vivo, SD rats; details: Rattus norvegicus, topical, 120 h, Sorafenib 80 mg/kg once a day, Days 5, read-out: Control rate
From the text: A rat animal model was constructed, and the anti-tumor agents shown in Table 2-2 were respectively administered to 8-week-old female SD rats by daily oral gavage. […] Therefore, rats serve as an excellent animal model for simulating side effects (such as hand-foot syndrome) caused by anti-tumor agents.
After the rats (about 200 g) were fed and adapted for one week, they were divided into a NO-NSAID group and a control group, with 10 rats in each group, and a gavage administration test was conducted. The various anti-tumor agents were dissolve in a mixed solution of Cremophor EL:ethanol=1:1. The anti-tumor agent solution were diluted with PBS to the required concentration (about 3 times with PBS solution) before gavage administration. After gavage, an ointment containing NO-NSAID was applied to the hind paws of the rats, while the control group was applied with a blank ointment. After application, the rats were placed in a fixed cylinder for 4 hours. After 4 hours, the rats were released and the residual ointment was wiped off with clean water, then the rats were returned to the cage. The gavage frequency of inhibitors was shown in Table 2-2, and NO-NSAID was only applied once a day. The gavage and application operations were repeated daily until the end of the experiment.
Table 2-2 lists the animal experimental combinations of various anti-tumor agents and NO-NSAID ointments, as well as the corresponding experimental results (wherein the value in the control rate column=the hand-foot syndrome incidence rate in the blank group−the hand-foot syndrome incidence rate in the treatment group).

HUVEC cells = assay: CCK-8 cell viability: alleviation of proliferative toxicity of anti-tumor agents on HUVEC cells (Tables 7-1, 7-2); assay type: cell-based; details: Homo sapiens, 24 h, NO-NSAID 100 μM, percentage increase in viable cells vs anti-tumor agent alone, read-out: Response rate % (average)
Protocol: The cultured HUVEC cells were digested the suspended, counted, and seed into a 96-well plate with 5,000-10,000 cells per well. The wells are divided into the following groups: blank control group, anti-tumor agent group, anti-tumor agent+NO-NSAID group, anti-tumor agent solvent group, NO-NSAID control group. Wherein each well of each group contained a basic medium, and the final liquid volume contained in each well was about 100 μL. The grouping situation was as follows: • 1) Blank control group: no solution was added except normally replacing the medium; • 2) Anti-tumor agent group: added the anti-tumor agent solution (the final concentration was shown in Table 7-1 and Table 7-2, the solvent of the anti-tumor agent solution was DMSO); • 3) Anti-tumor agent+NO-NSAID group: added the anti-tumor agent solution and the NO-NSAID solution (the final concentrations of anti-tumor agent and NO-NSAID were shown in Table 7-1 and Table 7-2, and according to the solubility of NO-NSAID, the solvent of NO-NSAID solution was selected as ethanol or sterile water, and minor volume differences in each group were adjusted by added the corresponding solvent); • 4) Anti-tumor agent solvent group: an equal volume of DMSO as contained in the corresponding anti-tumor agent solution in Group 2) was added; • 5) NO-NSAID control group: the same volume and type of solvent (for example, ethanol or sterile water) corresponding to the NO-NSAID contained in group 3) was added.
The anti-tumor agent solvent group was not involved in data processing and was only used as a reference for evaluating experimental system error. The NO-NSAID solvent control group was used for data correction to eliminate the influence of the solvent on the results.
After culturing for 24-48 hours, the Cell Counting Kit-8 (CCK-8) detection kit (C0037, Shanghai Beyotime Biotechnology Co., Ltd., Beyotime Biotechnology) was used to determine the cell viability. This allows for the calculation of the proliferative toxicity of anti-tumor agent on cell and the mitigating effect of NO-NSAID on proliferative toxicity. The results were statistically analyzed and plotted using GraphPad Prism 6.0 software and t test.

Question: With `CC(=O)Oc1ccccc1C(=O)O` [Acetylsalicylic acid] as the compound, how does the Control rate ([1]; ointment 1.00% wt) read?
Answer: The Control rate was 14.29%.

Question: For `COc1ccc2cc([C@H](C)C(=O)O)ccc2c1` [Naproxen], which Control rate ([1]; ointment 2.50% wt) is on record?
Answer: The Control rate was 16.67%.

Question: For `CC(C)Cc1ccc(C(C)C(=O)O)cc1` (centres unmarked) [Ibuprofen], which Control rate ([1]; ointment 2.00% wt) is on record?
Answer: Its Control rate is 0%.

Question: What does the source list for `COc1ccc2cc(C(C)C(=O)OCC(CO[N+](=O)O)C[N+](=O)[O-])ccc2c1` (centres unmarked) [Compound A9]?
Answer: responders at 1 % ([2]; ointment 1% wt): 28.6%; responders at 5 % ([2]; ointment 5% wt): 33.3%; activation at 100 µM (HUVEC cells; Afatinib (10 μM)): 32%; activation at 100 µM (HUVEC cells; Anlotinib (5 μM)): 58%; activation at 100 µM (HUVEC cells; Apatinib (10 μM)): 62%; activation at 100 µM (HUVEC cells; Axitinib (10 μM)): 45%; activation at 100 µM (HUVEC cells; Cabozantinib (5 μM)): 0%; activation at 100 µM (HUVEC cells; Dabrafenib (10 μM)): 35%; activation at 100 µM (HUVEC cells; Dacomitinib (5 μM)): 39%; activation at 100 µM (HUVEC cells; Encorafenib (5 μM)): 15%; activation at 100 µM (HUVEC cells; Erdafitinib (10 μM)): 42%; activation at 100 µM (HUVEC cells; Everolimus (5 μM)): 7%; activation at 100 µM (HUVEC cells; Famitinib (5 μM)): 33%; activation at 100 µM (HUVEC cells; Fruquintinib (10 μM)): 56%; activation at 100 µM (HUVEC cells; Gefitinib (10 μM)): 40%; activation at 100 µM (HUVEC cells; Infigratinib (15 μM)): 29%; activation at 100 µM (HUVEC cells; Lapatinib (5 μM)): 40%; activation at 100 µM (HUVEC cells; Lenvatinib (10 μM)): 43%; activation at 100 µM (HUVEC cells; Olmutinib (10 μM)): 42%; activation at 100 µM (HUVEC cells; Regorafenib (5 μM)): 40%; activation at 100 µM (HUVEC cells; Selumetinib (5 μM)): 36%; activation at 100 µM (HUVEC cells; Sorafenib (5 μM)): 48%; activation at 100 µM (HUVEC cells; Sunitinib (5 μM)): 16%; activation at 100 µM (HUVEC cells; Vemurafenib (5 μM)): 39%

Question: How did the Control rate ([1]; ointment 0.20% wt) turn out when `O=[N+]([O-])OCC(CO[N+](=O)[O-])O[N+](=O)[O-]` [Nitroglycerin] was run?
Answer: Its Control rate is 60%.

Question: For `CC(C(=O)OCC(CO[N+](=O)[O-])O[N+](=O)[O-])c1ccc(-c2ccccc2)c(F)c1` (centres unmarked) [Compound A10], which activation at 100 µM (HUVEC cells; Afatinib (10 μM)) is on record?
Answer: The activation at 100 µM was 56%.

Question: What about the activation at 100 µM (HUVEC cells; Anlotinib (5 μM)) of the same compound?
Answer: The activation at 100 µM was 27%.

Question: What about the activation at 100 µM (HUVEC cells; Apatinib (10 μM)) of the same compound?
Answer: Its activation at 100 µM is 58%.

Question: And the activation at 100 µM (HUVEC cells; Axitinib (10 μM))?
Answer: Its activation at 100 µM is -7%.

Question: What about the activation at 100 µM (HUVEC cells; Cabozantinib (5 μM)) of the same compound?
Answer: The activation at 100 µM was 49%.

Question: What about the activation at 100 µM (HUVEC cells; Dabrafenib (10 μM)) of the same compound?
Answer: The activation at 100 µM was 42%.

Question: And the activation at 100 µM (HUVEC cells; Dacomitinib (5 μM))?
Answer: The activation at 100 µM was 37%.

Question: And the activation at 100 µM (HUVEC cells; Encorafenib (5 μM))?
Answer: The activation at 100 µM was 33%.

Question: And the activation at 100 µM (HUVEC cells; Erdafitinib (10 μM))?
Answer: Its activation at 100 µM is 23%.

Question: What about the activation at 100 µM (HUVEC cells; Everolimus (5 μM)) of the same compound?
Answer: Its activation at 100 µM is 21%.

Question: And the activation at 100 µM (HUVEC cells; Famitinib (5 μM))?
Answer: Its activation at 100 µM is 49%.

Question: What about the activation at 100 µM (HUVEC cells; Fruquintinib (10 μM)) of the same compound?
Answer: The activation at 100 µM was 59%.

Question: And the activation at 100 µM (HUVEC cells; Gefitinib (10 μM))?
Answer: Its activation at 100 µM is 40%.

Question: What about the activation at 100 µM (HUVEC cells; Infigratinib (15 μM)) of the same compound?
Answer: The activation at 100 µM was 32%.

Question: And the activation at 100 µM (HUVEC cells; Lapatinib (5 μM))?
Answer: Its activation at 100 µM is 32%.

Question: What about the activation at 100 µM (HUVEC cells; Lenvatinib (10 μM)) of the same compound?
Answer: Its activation at 100 µM is 57%.

Question: And the activation at 100 µM (HUVEC cells; Olmutinib (10 μM))?
Answer: The activation at 100 µM was 48%.

Question: What about the activation at 100 µM (HUVEC cells; Regorafenib (5 μM)) of the same compound?
Answer: The activation at 100 µM was 48%.

Question: What about the activation at 100 µM (HUVEC cells; Selumetinib (5 μM)) of the same compound?
Answer: The activation at 100 µM was 46%.

Question: And the activation at 100 µM (HUVEC cells; Sorafenib (5 μM))?
Answer: Its activation at 100 µM is 13%.

Question: What about the activation at 100 µM (HUVEC cells; Sunitinib (5 μM)) of the same compound?
Answer: Its activation at 100 µM is 21%.

Question: And the activation at 100 µM (HUVEC cells; Vemurafenib (5 μM))?
Answer: The activation at 100 µM was 63%.
